Source: US7816410B2, “Pesticidal compositions” (priority 2003, dated 2010)

Tests used:
Assay type in all cases: in vivo
Details in all cases: 15 gai/hL
[1] = test system: glasshouse whitefly (Trialeurodes vaporariorum); experiment: Whitefly ovicide protectant test
Protocol: (§1) The aim of this study was to determine the efficacy of the compositions of the invention on separate life stages of the glasshouse whitefly (Trialeurodes vaporariorum). Three studies were undertaken, the first to determine the efficacy of the composition of the invention as an ovicide in both protectant and curative treatments. The following composition (Composition B) was prepared: All treatments were applied to tobacco plants (var. Tobacco nicotiana) using a hand-held atomiser (CEME-984), applied to both surfaces of the leaf, to incipient run-off. The composition was applied at 5000, 1000, 200, 100 and 50 mL product/hL, Imidacloprid (reference item) was applied at 15 gai/hL and controls were sprayed with deionised water only. Three replicate plants were sprayed for each treatment. The treated plants were maintained in a controlled environment room at 22.9-34.4° C., with lighting on a 16 h light/8 h dark cycle. Light intensity was recorded as 870-1464 lux. Relative humidity was recorded as being between 25.1-85.2%. For the ovicide test, plants were treated (both infested and uninfested with eggs). For the curative test, leaf discs were taken and egg numbers counted. For the protectant test, treated plants were infested after treatment then leaf discs taken with known numbers of eggs. […]

[2] = test system: glasshouse whitefly (Trialeurodes vaporariorum); experiment: Whitefly ovicide curative test
Protocol: as §1

[3] = test system: glasshouse whitefly (Trialeurodes vaporariorum); experiment: Whitefly nymph curative test
Text: The aim of this study was to determine the efficacy of the compositions of the invention on separate life stages of the glasshouse whitefly (Trialeurodes vaporariorum).
A second test was to determine the efficacy of composition B as a curative treatment against whitefly nymphs and the third test was to determine the effects of the composition as a (repellent) protectant spray against whitefly adults.
All treatments were applied to tobacco plants (var. Tobacco nicotiana) using a hand-held atomiser (CEME-984), applied to both surfaces of the leaf, to incipient run-off. The composition was applied at 5000, 1000, 200, 100 and 50 mL product/hL, Imidacloprid (reference item) was applied at 15 gai/hL and controls were sprayed with deionised water only.
Three replicate plants were sprayed for each treatment. The treated plants were maintained in a controlled environment room at 22.9-34.4° C., with lighting on a 16 h light/8 h dark cycle. Light intensity was recorded as 870-1464 lux. Relative humidity was recorded as being between 25.1-85.2%.
For the curative nymph test, leaves with nymphs 7-12 days old were treated and assessments of mortality made at 4, 7 and 10 days after application.

[4] = test system: glasshouse whitefly (Trialeurodes vaporariorum); experiment: Whitefly adult repellence (protectant) test
Text: The aim of this study was to determine the efficacy of the compositions of the invention on separate life stages of the glasshouse whitefly (Trialeurodes vaporariorum). A second test was to determine the efficacy of composition B as a curative treatment against whitefly nymphs and the third test was to determine the effects of the composition as a (repellent) protectant spray against whitefly adults. All treatments were applied to tobacco plants (var. Tobacco nicotiana) using a hand-held atomiser (CEME-984), applied to both surfaces of the leaf, to incipient run-off. The composition was applied at 5000, 1000, 200, 100 and 50 mL product/hL, Imidacloprid (reference item) was applied at 15 gai/hL and controls were sprayed with deionised water only. Three replicate plants were sprayed for each treatment. The treated plants were maintained in a controlled environment room at 22.9-34.4° C., with lighting on a 16 h light/8 h dark cycle. Light intensity was recorded as 870-1464 lux. Relative humidity was recorded as being between 25.1-85.2%. The adult protectant test, assessed the numbers of alive adults on treated leaves after immersion in an adult whitefly infested chamber, 15 and 18 days after application.

O=[N+]([O-])NC1=NCCN1Cc1ccc(Cl)nc1 [Imidacloprid]
percentage whitefly egg hatch ([1]; 1 DAA): 0.0% | percentage whitefly egg hatch ([1]; 3 DAA): 0.0% | percentage whitefly egg hatch ([1]; 7 DAA): 0.0% | percentage whitefly egg hatch ([2]; 1 DAA): 0.0% | percentage whitefly egg hatch ([2]; 3 DAA): 75.2% | percentage whitefly egg hatch ([2]; 7 DAA): 91.4% | percentage whitefly nymph mortality ([3]; 4 DAA): 100.0% | percentage whitefly nymph mortality ([3]; 7 DAA): 100.0% | percentage whitefly nymph mortality ([3]; 10 DAA): 100.0% | number of adult whitefly per leaf ([4]; 15 DAA): 0 | number of adult whitefly per leaf ([4]; 18 DAA): 0
